Data: patent US20210386738A1, “COMBINATION OF PRMT5 INHIBITORS AND BCL-2 INHIBITORS” (GLAXOSMITHKLINE INTELLECTUAL PROPERTY DEVELOPMENT LIMITED, priority 2018, published 2021)
Where two headings read alike, the source gives them in different places.

Legend:
[1] = tested on: Z-138; assay: Standard 6-day growth-death assay, Z-138 as control for Compound A; format: cell-based; conditions: single agent or fixed 1:1 combination
Method: The majority cell lines were obtained from GSK BioCat group, American Type Culture Collection (ATCC), or the Deutsche Sammlung von Mikroorganismen and Zellbulturen (DSMZ). All cell lines were maintained in growth medium in T75 cm^2 flasks, incubated at 37° C. with 5% CO2 and split every 3 to 4 days. Growth media conditions and cell line information are detailed in Table 1. Cells were counted using the Vi-Cell Analyzer (Beckman Coulter ViCell) to obtain viable cell counts.
Optimal cell seeding density was determined for all cell lines by monitoring proliferation over a range of seeding densities in 384-well format and identifying the seeding density at which cells grew logarithmically throughout six days. 50 uL of cells per well were plated in 384-well plates at the optimal seeding density in preferred supplemented culture media. Three plates were prepared per cell line and incubated overnight at 37° C. in 5% CO2.
In these studies, lymphoma cell lines were treated with PRMT5 inhibitor, compound A and BCL-2 targeted inhibitor, ABT-199 single agent or in combination using a fixed 1:1 ratio of each inhibitor over a 20-point titration. For compound A single and fixed 1:1 ratio combination with ABT-199 cell proliferation assay, cells were treated in duplicate with a 20-point, two-fold dilution series of Compound A, ABT-199 (≥14 μM top dose) single or combo treatment, and ≤0.15% DMSO final concentration. Plates were incubated for six days at the conditions described above. Cell growth was measured using CellTiter-Glo (Promega) and luminescence signal was detected with a BioTek Synergy Neo microplate reader. A plate of untreated cells was read at the time of compound/biologic addition to determine the T0 value representing the starting number of cells. Data were fit with a four-parameter equation to generate a concentration response curve using Assay Client software.
Results were background corrected by subtraction of values from wells containing no cells, expressed as a percentage of the T0 value (value at time=0), and plotted against compound concentration. The T0 value was normalized to 100% and represents the number of cells present at the time of compound addition. The cellular response was determined for each compound using a 4- or 6-parameter curve fit of cell viability against concentration using Assay Client software. Growth IC50 (gIC50) values correspond to the concentration intersecting the mid-point of the growth window (between DMSO and T0 values). Growth IC100 (gIC100) values correspond to the concentration at which 100% growth inhibition is achieved, based on the growth window. The Ymin−T0 value, a measure of net population cell growth or death, is calculated by subtracting the T0 value (100%) from the Ymin value (%) that is determined from the fit of the concentration response curve. Death EC50 (dEC50) values correspond to the concentration at which 50% net cell death is observed.
Individual curves were quality checked for three criteria: outlier data points, cell growth (population doubling ≥1.5), and proper curve fitting. […] Individual curves were QC checked for outlier data points, cell growth (population doubling ≥1.5), and proper curve fitting. Obvious outlier data points were omitted only as needed to ensure proper curve fit.
For fixed ratio screening, combination activity was assessed by the fold change in gIC50 compared to the 2 single agent curves by dividing the compound ratio as necessary. Combinations showing >3-fold and >5-fold change from single agent are described as below: • Fold changes ≥5 are considered to represent strong synergy. • Fold changes between 3.0 and 4.9 are considered to represent weak synergy. • Fold changes <3 are considered to represent no synergy.

[2] = tested on: lymphoma cell line DB; assay: Serial dilutions: fixed ABT-199 concentration with Compound A titration, six-day cell proliferation; format: cell-based; conditions: for EC50 / IC50: 144 h
Method: Serial dilutions were performed for the combination to ascertain the change in gIC50, gIC100 and dEC50 when the inhibitors are used together in a PRMT5 inhibitor cell proliferation. A first compound plate was prepared where PRMT5 inhibitor, Compound A, was prepared with a 20-point, two-fold dilution series of compound A from column 1 to 20. A second compound plate was prepared using the BCL-2 inhibitor ABT-199. ABT-199 was titrated in a 16-point 2-fold dilution series from row A to Q. A third plate was then created by added equal volume of 12 ul (ABT-199) from each well in the second plate into the corresponding well in the first plate. The third plate comprised rows from A to Q, each row comprising a fixed concentration of ABT-199. Columns 1-20 comprised varying concentrations of compound A from the 20-point dilution. Plates were incubated for six days at the conditions described above. Lymphoma cell line DB was treated with the solution in each of the wells. Cell growth was measured using CellTiter-Glo (Promega) and luminescence signal was detected with a BioTek Synergy Neo microplate reader. A plate of untreated cells was read at the time of compound/biologic addition to determine the T0 value representing the starting number of cells. Data were fit with a four-parameter equation to generate a concentration response curve for each row using Assay Client software. A comparison was made across each row in the third plate to determine, when keeping a fixed concentration of ABT-199, what concentration of compound A is needed to reach the gIC50, gIC100 or dEC50 respectively and the fold change compared to treating the same cell with compound A alone.
Tables 4a-c show the results of the above serial dilution experiments wherein ‘fold change’ is the difference between the amount of compound A needed to achieve gIC50, gIC100 or dEC50 respectively, compared to the amount of compound A needed to achieve gIC50, gIC100 or dEC50 respectively when compound A is given as a single agent.

O=C(NC[C@H](O)CN1CCc2ccccc2C1)c1ccnc(NC2CCC2)c1 [Compound A]
EC50 ([1]; Homo sapiens, 144 h, average of n=2, read-out: dEC50): 794 nM
IC50 ([1]; Homo sapiens, 144 h, average of n=2, read-out: gIC50): 38 nM
Ymin-T0 ([1]; average of n=2): −93.1%
gIC100 ([1]; average of n=2): 453 nM
EC50 ([2]; single agent, six days, read-out: dEC50): > 7330 nM
IC50 ([2]; single agent, six days, read-out: gIC50): 631 nM
EC50 ([2]; with fixed ABT-199 1 nM, six days, read-out: Compound A required for dEC50): > 7330 nM
IC50 ([2]; with fixed ABT-199 1 nM, six days, read-out: compound A required for gIC50): 445 nM
EC50 ([2]; with fixed ABT-199 2 nM, six days, read-out: Compound A required for dEC50): > 7330 nM
IC50 ([2]; with fixed ABT-199 2 nM, six days, read-out: compound A required for gIC50): 509 nM
EC50 ([2]; with fixed ABT-199 4 nM, six days, read-out: Compound A required for dEC50): > 7330 nM
IC50 ([2]; with fixed ABT-199 4 nM, six days, read-out: compound A required for gIC50): 514 nM
EC50 ([2]; with fixed ABT-199 7 nM, six days, read-out: Compound A required for dEC50): > 7330 nM
IC50 ([2]; with fixed ABT-199 7 nM, six days, read-out: compound A required for gIC50): 449 nM
EC50 ([2]; with fixed ABT-199 14 nM, six days, read-out: Compound A required for dEC50): > 7330 nM
IC50 ([2]; with fixed ABT-199 14 nM, six days, read-out: compound A required for gIC50): 387 nM
EC50 ([2]; with fixed ABT-199 29 nM, six days, read-out: Compound A required for dEC50): > 7330 nM
IC50 ([2]; with fixed ABT-199 29 nM, six days, read-out: compound A required for gIC50): 351 nM
EC50 ([2]; with fixed ABT-199 57 nM, six days, read-out: Compound A required for dEC50): 5370 nM
IC50 ([2]; with fixed ABT-199 57 nM, six days, read-out: compound A required for gIC50): 247 nM
EC50 ([2]; with fixed ABT-199 115 nM, six days, read-out: Compound A required for dEC50): 4660 nM
IC50 ([2]; with fixed ABT-199 115 nM, six days, read-out: compound A required for gIC50): 209 nM
EC50 ([2]; with fixed ABT-199 229 nM, six days, read-out: Compound A required for dEC50): 4660 nM
IC50 ([2]; with fixed ABT-199 229 nM, six days, read-out: compound A required for gIC50): 115 nM
EC50 ([2]; with fixed ABT-199 458 nM, six days, read-out: Compound A required for dEC50): 3920 nM
IC50 ([2]; with fixed ABT-199 458 nM, six days, read-out: compound A required for gIC50): 119 nM
EC50 ([2]; with fixed ABT-199 916 nM, six days, read-out: Compound A required for dEC50): 2530 nM
IC50 ([2]; with fixed ABT-199 916 nM, six days, read-out: compound A required for gIC50): 78 nM
EC50 ([2]; with fixed ABT-199 1833 nM, six days, read-out: Compound A required for dEC50): 2390 nM
IC50 ([2]; with fixed ABT-199 1833 nM, six days, read-out: compound A required for gIC50): 74 nM
EC50 ([2]; with fixed ABT-199 3666 nM, six days, read-out: Compound A required for dEC50): 2250 nM
IC50 ([2]; with fixed ABT-199 3666 nM, six days, read-out: compound A required for gIC50): 80 nM
EC50 ([2]; with fixed ABT-199 7331 nM, six days, read-out: Compound A required for dEC50): 2300 nM
IC50 ([2]; with fixed ABT-199 7331 nM, six days, read-out: compound A required for gIC50): 15 nM
Fold change over compound A single agent gIC50 (631 nM, most potent of the two agents) ([2]; single agent): 1.0
Fold change over compound A single agent gIC100 (6489 nM, most potent of the two agents) ([2]; single agent): 1.0
gIC100 ([2]; single agent, six days): 6.489 µM
Fold change over compound A single agent gIC50 (631 nM, most potent of the two agents) ([2]; with fixed ABT-199 1 nM): 1.4
Fold change over compound A single agent gIC100 (6489 nM, most potent of the two agents) ([2]; with fixed ABT-199 1 nM): 0.9
compound A required for gIC100 ([2]; with fixed ABT-199 1 nM, six days): 7.331 µM
Fold change over compound A single agent gIC50 (631 nM, most potent of the two agents) ([2]; with fixed ABT-199 2 nM): 1.2
Fold change over compound A single agent gIC100 (6489 nM, most potent of the two agents) ([2]; with fixed ABT-199 2 nM): 0.9
compound A required for gIC100 ([2]; with fixed ABT-199 2 nM, six days): 7.331 µM
